How the values were obtained:
IMCD3 cells = test: Cellular ATP content (CellTiter-Glo cytotoxicity assay); assay type: cell-based, murine
Experimental: Murine inner medullary collecting duct (IMCD3) cells stably expressing mNeonGreen-IFT88 (described previously [[Ye et al., 2013]]) were maintained in DMEM/F12 supplemented with 10% FBS. Cell line identity was confirmed by the proper localization and motility of mNeonGreen IFT88 puncta, in reference to published analyses from our groups and from the work of others ([Ye et al., 2013]; [Yang et al., 2015]). Cells were seeded in a 96-well plate at a density of 5 × 10^3 cells/well. Following overnight incubation, low-serum media (0.2% FBS) containing solvent control (0.3% DMSO) or compound. At fixed time points, CellTiter-Glo 2.0 (Promega) reagent was added to the wells, mixed by pipetting, and transferred to a white, opaque 96-well plate. After a 10 min incubation, luminescence for each condition was read using a Synergy Neo plate reader (1 s integration time per well).

His-dynein 1 = target: T1, His-dynein 1 (Homo sapiens, UniProt Q14204); test: Ultraviolet light and ADP-vanadate-dependent photocleavage of dynein; assay type: biochemical; conditions: 4 µM compound
T1 construct: (wild-type, K1912A, K2601A, AA 1320–4646, uniprot: Q14204); made in house; host or cells: Sf9 insect cells (baculovirus)
T1 sequence (Q14204 1320-4646): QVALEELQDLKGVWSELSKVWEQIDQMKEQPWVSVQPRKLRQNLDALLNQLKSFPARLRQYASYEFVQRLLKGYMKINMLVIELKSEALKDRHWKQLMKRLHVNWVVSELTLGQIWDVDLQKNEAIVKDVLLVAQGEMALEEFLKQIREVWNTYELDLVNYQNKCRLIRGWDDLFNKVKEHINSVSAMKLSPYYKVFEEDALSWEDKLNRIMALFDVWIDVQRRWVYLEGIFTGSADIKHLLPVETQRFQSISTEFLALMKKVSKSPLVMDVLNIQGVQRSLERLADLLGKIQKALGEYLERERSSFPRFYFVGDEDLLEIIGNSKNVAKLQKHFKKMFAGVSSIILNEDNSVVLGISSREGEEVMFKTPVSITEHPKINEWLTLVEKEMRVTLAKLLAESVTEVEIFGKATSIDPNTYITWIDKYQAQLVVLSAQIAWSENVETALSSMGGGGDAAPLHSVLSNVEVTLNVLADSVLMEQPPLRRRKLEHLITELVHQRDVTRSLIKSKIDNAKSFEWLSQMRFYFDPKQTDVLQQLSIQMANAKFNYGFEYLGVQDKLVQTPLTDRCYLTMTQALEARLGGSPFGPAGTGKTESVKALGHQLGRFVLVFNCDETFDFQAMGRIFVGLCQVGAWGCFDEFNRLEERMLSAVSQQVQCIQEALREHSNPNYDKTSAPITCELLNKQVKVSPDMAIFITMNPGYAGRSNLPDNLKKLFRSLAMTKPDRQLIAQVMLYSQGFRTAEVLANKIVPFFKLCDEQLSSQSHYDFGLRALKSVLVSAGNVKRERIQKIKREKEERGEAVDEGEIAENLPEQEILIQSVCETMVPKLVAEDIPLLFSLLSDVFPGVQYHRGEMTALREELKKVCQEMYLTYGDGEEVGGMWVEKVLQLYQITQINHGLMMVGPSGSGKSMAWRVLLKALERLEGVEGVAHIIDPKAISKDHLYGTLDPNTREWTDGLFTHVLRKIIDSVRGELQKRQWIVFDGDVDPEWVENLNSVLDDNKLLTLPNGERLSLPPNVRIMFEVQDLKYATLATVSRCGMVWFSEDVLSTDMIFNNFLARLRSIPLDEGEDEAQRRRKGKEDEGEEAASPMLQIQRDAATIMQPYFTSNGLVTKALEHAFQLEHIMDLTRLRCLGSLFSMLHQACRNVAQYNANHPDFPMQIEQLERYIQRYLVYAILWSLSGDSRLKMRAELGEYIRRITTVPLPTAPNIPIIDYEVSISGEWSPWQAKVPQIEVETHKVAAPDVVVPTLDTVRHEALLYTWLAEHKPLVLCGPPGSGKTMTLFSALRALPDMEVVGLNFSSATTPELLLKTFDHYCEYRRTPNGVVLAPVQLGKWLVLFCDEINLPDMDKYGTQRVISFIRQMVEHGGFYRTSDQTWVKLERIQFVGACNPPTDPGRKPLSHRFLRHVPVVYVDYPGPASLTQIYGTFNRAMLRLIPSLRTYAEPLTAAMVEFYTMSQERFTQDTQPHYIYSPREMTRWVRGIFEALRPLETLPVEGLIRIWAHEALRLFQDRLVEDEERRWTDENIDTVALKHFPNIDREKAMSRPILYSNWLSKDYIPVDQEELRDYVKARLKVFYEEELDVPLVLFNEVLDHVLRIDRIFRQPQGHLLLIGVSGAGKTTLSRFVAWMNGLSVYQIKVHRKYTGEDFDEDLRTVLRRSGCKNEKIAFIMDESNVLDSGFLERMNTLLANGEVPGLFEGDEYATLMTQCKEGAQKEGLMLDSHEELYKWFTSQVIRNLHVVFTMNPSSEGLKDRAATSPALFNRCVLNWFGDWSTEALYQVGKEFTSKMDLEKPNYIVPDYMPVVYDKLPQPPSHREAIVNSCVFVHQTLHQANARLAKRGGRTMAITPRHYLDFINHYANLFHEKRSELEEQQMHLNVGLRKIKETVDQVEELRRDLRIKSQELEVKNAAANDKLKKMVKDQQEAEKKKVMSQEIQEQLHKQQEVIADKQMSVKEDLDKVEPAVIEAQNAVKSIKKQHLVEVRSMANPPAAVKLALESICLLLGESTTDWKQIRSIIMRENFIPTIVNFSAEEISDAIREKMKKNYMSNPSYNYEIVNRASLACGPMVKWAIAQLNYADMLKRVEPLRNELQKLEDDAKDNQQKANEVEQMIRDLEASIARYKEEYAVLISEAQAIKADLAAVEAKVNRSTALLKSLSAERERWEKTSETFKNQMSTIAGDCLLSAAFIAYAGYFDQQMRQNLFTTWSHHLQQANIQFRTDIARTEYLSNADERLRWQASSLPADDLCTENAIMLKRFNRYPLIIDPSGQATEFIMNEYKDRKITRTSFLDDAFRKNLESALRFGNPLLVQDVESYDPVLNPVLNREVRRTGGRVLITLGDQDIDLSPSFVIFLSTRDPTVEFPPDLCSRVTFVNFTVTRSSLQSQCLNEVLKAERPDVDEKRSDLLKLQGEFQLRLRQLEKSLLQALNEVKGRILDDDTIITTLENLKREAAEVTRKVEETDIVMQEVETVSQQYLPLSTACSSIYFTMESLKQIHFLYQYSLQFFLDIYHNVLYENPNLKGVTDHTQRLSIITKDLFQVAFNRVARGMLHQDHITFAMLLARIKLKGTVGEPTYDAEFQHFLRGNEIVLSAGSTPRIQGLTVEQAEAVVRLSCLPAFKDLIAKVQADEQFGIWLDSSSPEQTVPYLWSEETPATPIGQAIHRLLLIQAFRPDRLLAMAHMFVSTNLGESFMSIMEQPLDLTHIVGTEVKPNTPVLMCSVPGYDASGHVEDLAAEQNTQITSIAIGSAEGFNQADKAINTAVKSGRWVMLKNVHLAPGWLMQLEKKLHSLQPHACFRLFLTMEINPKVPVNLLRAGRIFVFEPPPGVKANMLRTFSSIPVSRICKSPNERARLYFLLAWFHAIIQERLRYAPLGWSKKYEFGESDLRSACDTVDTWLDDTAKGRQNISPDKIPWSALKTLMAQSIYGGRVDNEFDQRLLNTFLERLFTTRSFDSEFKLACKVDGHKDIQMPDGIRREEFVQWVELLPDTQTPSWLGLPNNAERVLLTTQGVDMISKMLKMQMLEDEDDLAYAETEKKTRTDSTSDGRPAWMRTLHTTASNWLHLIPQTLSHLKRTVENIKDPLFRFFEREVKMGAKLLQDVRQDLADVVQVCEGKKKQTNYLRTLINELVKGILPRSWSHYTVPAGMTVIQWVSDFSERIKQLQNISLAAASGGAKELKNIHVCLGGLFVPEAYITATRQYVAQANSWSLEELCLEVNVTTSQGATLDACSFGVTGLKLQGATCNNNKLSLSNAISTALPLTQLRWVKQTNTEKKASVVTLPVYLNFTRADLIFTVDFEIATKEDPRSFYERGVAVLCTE
Experimental: Thirty-microliter reactions were prepared in 96-well plates as follows. ATPase buffer was supplemented with concentrated stocks of His-dynein 1 (90nM final), compound 8 (4µM final) or an equivalent amount of solvent carrier (3.3% DMSO), followed by a 10 min incubation at room temperature. ATP (0.1 mM final) was added and the mixtures were incubated 5 min at room temperature. NaVO3 (0.1 mM final) was added and the mixtures were again incubated 5 min at room temperature. Vanadate was deliberately omitted from one well. The plate was then transferred to ice and irradiated with 365 nm light for 15 min with the lamp positioned 10 cm above the plate(Spectroline Maxima ML-3500S lamp). Following addition of SDS-PAGE loading buffer and heating (95°, 5 min), individual reactions were resolved on hand-poured 8% tris-glycine polyacrylamide gels. Gels were stained (Coomassie blue), imaged using a Li-Cor Odyssey, and band intensities were analyzed using FIJI.
Quantification of ADP-vanadate dependent photocleavage of dynein was performed as follows: Scanned gels were analyzed with FIJI, and fraction cleaved quantified as follows:
Fraction cleaved = (intensity of band at 250 kDa) /
(intensity of band at 250 kDa + intensity of band at ~350 kDa)

[1] = system: Gli-driven luciferase reporter in NIH-3T3 (Shh-Light2) cells; test: Hedgehog pathway activity, Gli-driven luciferase reporter (Shh-Light2 cells, SAG-stimulated); assay type: cell-based; conditions: for Concentration at which cell death was observed: 28 hr time course, ~10-fold above the IC50; for IC50: Shh Light2, SAG 500 nM, low serum (0.5% BCS), 28–32 hr, read-out: IC50, inhibition of Gli-driven luciferase reporter expression
From the text: We next examined the inhibition of dynein 2 by dynapyrazole-A in cell-based assays. In cell culture, serum starvation results in the formation of primary cilia, which are required for Hedgehog signaling ([Goetz and Anderson, 2010]). Quiescent cells respond to the Hedgehog ligand or to a synthetic agonist and pathway activity can be measured using a Gli-driven luciferase reporter ([Taipale et al., 2000]; [Chen et al., 2002]). Expression of Hedgehog-driven luciferase reporter was inhibited by dynapyrazole-A (Compound 8, IC50: 1.9 ± 0.6 µM) ~8 fold more potently than ciliobrevin D (IC50: 15.5 ± 3 µM, Figure 3I). […] In this assay, we have also observed cell death at high ciliobrevin D concentrations (200 µM,~10x above its IC50). To stimulate Hedgehog pathway activity, we used the synthetic agonist of smoothened (SAG) ([Chen et al., 2002]), which competes with many known Hedgehog pathway inhibitors for binding to Smoothened, a key protein in this signaling pathway ([Sharpe et al., 2015]). As dynapyrazole-A inhibits Hedgehog signaling at high SAG concentrations (500 nM), it is likely to act downstream of Smoothened, as was previously noted for ciliobrevins and consistent with inhibition of dynein 2 ([Hyman et al., 2009]; [Firestone et al., 2012]).
NIH-3T3 cells stably expressing a luciferase reporter downstream of a Gli binding site (Shh-Light2 cells, RRID: CVCL_2721) were maintained in DMEM with 10% bovine calf serum (BCS). Cells were seeded at a density of 30,000 cells/well in 96-well tissue culture-treated plates (Corning, cat #353072) in 100 μL in DMEM +10% BCS, and incubated for 48 hr ([Taipale et al., 2000]). Wells were washed briefly with PBS. Next 100 μL of low serum media (DMEM +0.5% BCS) containing smoothened agonist (SAG, 500nM), and either solvent control (0.2% DMSO) or test compound (serial threefold dilutions of each inhibitor starting from 20 μM) were added to the wells. After 28–32 hr of inhibitor treatment, cells were washed with 50 μL PBS and lysed for >30 min in 30 μL Passive Lysis Buffer (Promega Dual Luciferase kit, cat E1910). 5 μL of each lysate was transferred to white, solid-bottom 96-well plates (Greiner, cat #655075), followed by rapid addition (within 30 s) of 30 μL of Luciferase Assay Reagent using a multichannel pipette. Luminescence for each condition was read using a Synergy Neo plate reader (5 s integration time per well). Cell line identity was confirmed by measurement of the degree of response to Hedgehog pathway stimulation by the synthetic agonist SAG and using previously-published values from our groups and others as references ([Firestone et al., 2012]; [Hyman et al., 2009]).
Curve fitting: Where dose-response experiments are fit and IC50values given, these are obtained as follows: Individual experiments are treated as separate. The data are fit to a sigmoidal dose-response curve of the form (Y=Bottom + (Top-Bottom)/(1 + 10^((LogIC50-X)*HillSlope)). All variables were allowed to float freely with the exception of the variable denoted ‘bottom’, which was constrained to be >0. The separate IC50 values obtained from fits to each individual experiment's dataset were averaged together and presented as a mean with range (Figure 3G and H) or standard deviation (Figures 3I, 5D, 6E and K).

`N#Cc1c(C2(c3ccc(Cl)cc3)CC2)nn2c1[nH]c(=O)c1cc(I)ccc12` [Compound 8, 2-[1-(4-chlorophenyl)cyclopropyl]-7-iodo-5-oxo-4H-pyrazolo[1,5-a]quinazoline-3-carbonitrile] was tested, and the “ATP levels in cells” value (IMCD3 cells; 5 µM, low-serum or serum-free media) was “stable for up to 3 hr”, the “Lowering of intracellular ATP levels” value (IMCD3 cells; 15 µM, at 3 hr) was ~ 70% and the “Reduction of ADP-vanadate dependent photocleavage relative to controls” value (His-dynein 1) was ~ 2.5 fold. For the same compound, the “ADP-vanadate dependent photocleavage of His-dynein 1” value (His-dynein 1; 100 µM ATP, 100 µM vanadate, control 42 ± 3%) was 17 ± 2%, the “Concentration at which cell death was observed” value [1] was 20 µM and the IC50 [1] was 1.9 ± 0.6 µM. For the same compound, the “Potency relative to ciliobrevin D, Hedgehog-driven luciferase reporter” value ([1]; more potent than ciliobrevin D) was ~ 8 fold.
In the case of `N#C/C(C(=O)c1ccc(Cl)cc1Cl)=C1\NC(=O)c2ccc(Cl)cc2N1` [ciliobrevin D, reference compound], the “Concentration at which cell death was observed” value [1] is reported as 200 µM and the IC50 [1] is reported as 15.5 ± 3 µM.
